Experimental data: patent publication US20230131899A1, “INHIBITORS OF MICROBIALLY INDUCED AMYLOID” (Axial Therapeutics, Inc., priority 2020, published 2023)
Where two headings read alike, the source gives them in different places.

Molecular target: T1, E. coli CsgA (Escherichia coli, UniProt P28307)
T1 construct: made in house; host or cells: E. coli NEB 3016 slyD::kan, pET11d
Test: In vitro ThioflavinT assay of CsgA aggregation (CsgA ThT Assay)
Type: biochemical
Conditions: 1005 minutes; for remaining activity at 25 µM: compound 25 μM; for remaining activity at 100 µM: compound 100 μM
Outline: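 Purified C-terminal His-tagged CsgA, monomerised by desalting and 30-kDa filtration, at 2-20 μM with 20-40 μM ThT in 50 mM potassium phosphate pH 7.3, 1% DMSO, compounds 3.125-200 uM; room temperature, fluorescence (ex 438/em 495 nm) read every 15 min. Background-subtracted signal expressed as percent inhibition versus vehicle at 6-6.5 or 8-9 h, or as percent control AUC.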

[1] = read-out: CsgA ThT Assay (10 μM CsgA) % Control AUC at 1005 minutes, 25 μM (activity range), CsgA 10 μM, black plates, class symbol
[2] = read-out: CsgA ThT Assay (10 μM CsgA) % Control AUC at 1005 minutes, 25 μM, mean AUC as % of DMSO control, CsgA 10 μM, black plates
[3] = read-out: CsgA ThT Assay (10 μM CsgA) % Control AUC at 1005 minutes, 100 μM (activity range), CsgA 10 μM, black plates, class symbol
[4] = read-out: CsgA ThT Assay (10 μM CsgA) % Control AUC at 1005 minutes, 100 μM, mean AUC as % of DMSO control, CsgA 10 μM, black plates

T1 sequence (P28307 23-151): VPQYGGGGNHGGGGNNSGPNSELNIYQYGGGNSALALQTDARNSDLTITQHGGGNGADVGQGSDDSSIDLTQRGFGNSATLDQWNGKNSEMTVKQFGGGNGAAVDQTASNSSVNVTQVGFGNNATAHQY

SMILES | remaining activity at 25 µM [1] [%] | remaining activity at 25 µM [2] [%] | remaining activity at 100 µM [3] [%] | remaining activity at 100 µM [4] [%]
CCc1c(Cc2cccc3ccccc23)c(-c2cccc(C(F)(F)F)c2)c2n(c1=O)C(C(=O)O)CN(C1CCCCC1)S2(=O)=O (centres unmarked) [Compound 116, 2-cyclohexyl-7-ethyl-8-(naphthalen-1-ylmethyl)-6-oxo-9-(3-(trifluoromethyl)phenyl)-3,4-dihydro-2H,6H-pyrido[1,2-e][1,2,5]thiadiazine-4-carboxylic acid 1,1-dioxide] | 11 to 31 | 30 | 31 to 60 | 38
O=C(O)C1CSc2c(-c3cccc(C(F)(F)F)c3)c(Cc3cccc4ccccc34)cc(=O)n21 (racemic) [Compound 011, 7-(naphthalen-1-ylmethyl)-5-oxo-8-(3-(trifluoromethyl)phenyl)-2,3-dihydro-5H-thiazolo[3,2-a]pyridine-3-carboxylic acid] | > 60 | 63 | > 60 | 62
O=C(O)[C@@H]1CS(=O)(=O)c2c(-c3cccc(C(F)(F)F)c3)c(Cc3cccc4ccccc34)cc(=O)n21 (single isomer, unassigned) [Compound 010a, 7-(naphthalen-1-ylmethyl)-5-oxo-8-(3-(trifluoromethyl)phenyl)-2,3-dihydro-5H-thiazolo[3,2-a]pyridine-3-carboxylic acid 1,1-dioxide] | > 60 | 85 | 31 to 60 | 37
CCN1CC(C(=O)O)n2c(c(-c3cccc(C(F)(F)F)c3)c(Cc3cccc4ccccc34)cc2=O)S1(=O)=O (single isomer, unassigned) [Compound 015a, 2-ethyl-8-(naphthalen-1-ylmethyl)-6-oxo-9-(3-(trifluoromethyl)phenyl)-3,4-dihydro-2H,6H-pyrido[1,2-e][1,2,5]thiadiazine-4-carboxylic acid 1,1-dioxide] | 11 to 31 | 25 | 11 to 31 | 17
CCCCCN1CC(C(=O)O)n2c(c(-c3cccc(C(F)(F)F)c3)c(Cc3cccc4ccccc34)cc2=O)S1(=O)=O (racemic) [Compound 025, 8-(naphthalen-1-ylmethyl)-6-oxo-2-pentyl-9-(3-(trifluoromethyl)phenyl)-3,4-dihydro-2H,6H-pyrido[1,2-e][1,2,5]thiadiazine-4-carboxylic acid 1,1-dioxide] | 31 to 60 | 49 |  | 
CCCN1CC(C(=O)O)n2c(c(-c3cccc(C(F)(F)F)c3)c(Cc3cccc4ccccc34)cc2=O)S1(=O)=O (racemic) [Compound 016, 8-(naphthalen-1-ylmethyl)-6-oxo-2-propyl-9-(3-(trifluoromethyl)phenyl)-3,4-dihydro-2H,6H-pyrido[1,2-e][1,2,5]thiadiazine-4-carboxylic acid 1,1-dioxide] | 31 to 60 | 48 | 31 to 60 | 33
O=C(O)[C@H]1CS(=O)(=O)c2c(-c3cccc(C(F)(F)F)c3)c(Cc3cccc4ccccc34)cc(=O)n21 (single isomer, unassigned) [Compound 010b, 7-(naphthalen-1-ylmethyl)-5-oxo-8-(3-(trifluoromethyl)phenyl)-2,3-dihydro-5H-thiazolo[3,2-a]pyridine-3-carboxylic acid 1,1-dioxide] | > 60 | 85 | 31 to 60 | 45
CN(C)Cc1c(Cc2cccc3ccccc23)c(-c2cccc(C(F)(F)F)c2)c2n(c1=O)C(C(=O)O)CS2 (centres unmarked) [Compound 075, 6-((dimethylamino)methyl)-7-(naphthalen-1-ylmethyl)-5-oxo-8-(3-(trifluoromethyl)phenyl)-2,3-dihydro-5H-thiazolo[3,2-a]pyridine-3-carboxylic acid] | > 60 | 118 | > 60 | 117
NC(=O)CN1CC(C(=O)O)n2c(c(-c3cccc(C(F)(F)F)c3)c(Cc3cccc4ccccc34)cc2=O)S1(=O)=O (centres unmarked) [Compound 028, 2-(2-amino-2-oxoethyl)-8-(naphthalen-1-ylmethyl)-6-oxo-9-(3-(trifluoromethyl)phenyl)-3,4-dihydro-2H,6H-pyrido[1,2-e][1,2,5]thiadiazine-4-carboxylic acid 1,1-dioxide] | > 60 | 66 | 11 to 31 | 27
O=C(O)C1CN(CCCCCO)S(=O)(=O)c2c(-c3cccc(C(F)(F)F)c3)c(Cc3cccc4ccccc34)c(NC3CCCC3)c(=O)n21 (centres unmarked) [Compound 122, 7-(cyclopentylamino)-2-(5-hydroxypentyl)-8-(naphthalen-1-ylmethyl)-6-oxo-9-(3-(trifluoromethyl)phenyl)-3,4-dihydro-2H,6H-pyrido[1,2-e][1,2,5]thiadiazine-4-carboxylic acid 1,1-dioxide] | 31 to 60 | 32 | 11 to 31 | 15
Nc1c(Cc2cccc3ccccc23)c(-c2cccc(C(F)(F)F)c2)c2n(c1=O)C(C(=O)O)CS2(=O)=O (centres unmarked) [Compound 023, 6-amino-7-(naphthalen-1-ylmethyl)-5-oxo-8-(3-(trifluoromethyl)phenyl)-2,3-dihydro-5H-thiazolo[3,2-a]pyridine-3-carboxylic acid 1,1-dioxide] | > 60 | 73 | 31 to 60 | 34
Nc1c(Cc2cccc3ccccc23)c(-c2cccc(C(F)(F)F)c2)c2n(c1=O)C(C(=O)O)CS2 (racemic) [Compound 020, 6-amino-7-(naphthalen-1-ylmethyl)-5-oxo-8-(3-(trifluoromethyl)phenyl)-2,3-dihydro-5H-thiazolo[3,2-a]pyridine-3-carboxylic acid] | 11 to 31 | 18 | < 10 | 7
C=CCCN1CC(C(=O)O)n2c(c(-c3cccc(C(F)(F)F)c3)c(Cc3cccc4ccccc34)cc2=O)S1(=O)=O (centres unmarked) [Compound 024, 2-(but-3-en-1-yl)-8-(naphthalen-1-ylmethyl)-6-oxo-9-(3-(trifluoromethyl)phenyl)-3,4-dihydro-2H,6H-pyrido[1,2-e][1,2,5]thiadiazine-4-carboxylic acid 1,1-dioxide] | 31 to 60 | 35 | 31 to 60 | 39
